Laboratory results from patent publication US20060058345A1, “Use of papaverine-like vasodilator and pharmaceutical composition” (Ursapharm Arzneimittel GmbH & Co KG, priority 2002, published 2006).
“And” between values parts separate entries of the source, which are not always exact repeats. Identical values can stand only once. Counter-ions that a name gives are not always drawn.

Legend:
[1] = Absorption of 14C-marked moxaverine into eye tissues and plasma after ocular or systemic application; settings: for Amount of active substance in the moist tissue: single experiments
albino rabbits = experiment: Compatibility study, topical application to the rabbit eye over 28 days (EU Directive 92/69/EEC, method B.5); assay type: in vivo; settings: 50 μl aqueous solution pH 3.0-3.5, right eye, twelve albino rabbits
Protocol: In a compatibility study 50 μl of a moxaverine hydrochloride-bearing aqueous solution with a pH of 3.0-3.5 was applied to the right eye of twelve albino rabbits in each case over a period of 28 days with four applications per working day and two applications per weekend day in a single dose. The left eye served in each case as a control. Evaluation of the eye reaction was effected in accordance with the Table of EU Directive 92/69/EEC, Appendix, method B.5.

[2] = ocular application, after 30 minutes, Aqueous humor
[3] = ocular application, after 30 minutes, Lens
[4] = ocular application, after 30 minutes, Plasma
[5] = ocular application, after 120 minutes, Retina
[6] = systemic application (intravenous), after 30 minutes, Aqueous humor
[7] = systemic application (intravenous), after 30 minutes, Iris/ciliary process
[8] = systemic application (intravenous), after 30 minutes, Lens
[9] = systemic application (intravenous), after 30 minutes, Plasma
[10] = systemic application (intravenous), after 30 minutes, Retina
[11] = systemic application (intravenous), after 30 minutes, Vitreous humor
[12] = systemic application (intravenous), after 120 minutes, Aqueous humor
[13] = systemic application (intravenous), after 120 minutes, Conjunctiva
[14] = systemic application (intravenous), after 120 minutes, Iris/ciliary process
[15] = systemic application (intravenous), after 120 minutes, Lens
[16] = systemic application (intravenous), after 120 minutes, Plasma
[17] = systemic application (intravenous), after 120 minutes, Retina
[18] = systemic application (intravenous), after 120 minutes, Sclera
[19] = systemic application (intravenous), after 120 minutes, Vitreous humor

CCc1cc2cc(OC)c(OC)cc2c(Cc2ccccc2)n1 [moxaverine]
Factor by which concentration in the iris and the ciliary process is less with systemic than with topical application ([1]; 30 minutes): ~6
Factor by which concentration in the iris and the ciliary process is less with systemic than with topical application ([1]; 120 minutes): ~18
Concentration in the retina, systemic compared to topical administration ([1]; after 30 minutes): slightly above
Concentration in the conjunctiva and the cornea after 120 minutes compared to 30 minutes ([1]; ocular application): decreased
Concentration in the iris and the ciliary process after 120 minutes compared to 30 minutes ([1]; ocular application): almost doubled
Increase of concentration in the retina after 120 minutes compared to 30 minutes ([1]; ocular application): about 50%
Amount of active substance in the moist tissue, Mean value [1, 2]: 1.9529E−07 mg of moxaverine/g of moist tissue
Amount of active substance in the moist tissue [1, 2]: 1.4923E−07 mg of moxaverine/g of moist tissue and 2.6321E−07 mg of moxaverine/g of moist tissue and 1.7533E−07 mg of moxaverine/g of moist tissue
Amount of active substance in the moist tissue, Mean value ([1]; ocular application, after 30 minutes, Conjunctiva): 6.1602E−04 mg of moxaverine/g of moist tissue
Amount of active substance in the moist tissue, Mean value ([1]; ocular application, after 30 minutes, Cornea): 1.8538E−03 mg of moxaverine/g of moist tissue
Amount of active substance in the moist tissue, Mean value ([1]; ocular application, after 30 minutes, Iris/ciliary process): 1.5028E−03 mg of moxaverine/g of moist tissue
Amount of active substance in the moist tissue, Mean value [1, 3]: 4.9582E−05 mg of moxaverine/g of moist tissue
Amount of active substance in the moist tissue [1, 3]: 4.6171E−05 mg of moxaverine/g of moist tissue and 6.1860E−05 mg of moxaverine/g of moist tissue and 4.0715E−05 mg of moxaverine/g of moist tissue
Amount of active substance in the moist tissue, Mean value [1, 4]: 2.0234E−05 mg of moxaverine/g of moist tissue
Amount of active substance in the moist tissue [1, 4]: 2.3741E−05 mg of moxaverine/g of moist tissue and 1.8259E−05 mg of moxaverine/g of moist tissue and 1.8702E−05 mg of moxaverine/g of moist tissue
Amount of active substance in the moist tissue, Mean value ([1]; ocular application, after 30 minutes, Retina): 1.0031E−04 mg of moxaverine/g of moist tissue
Amount of active substance in the moist tissue, Mean value ([1]; ocular application, after 30 minutes, Sclera): 1.0012E−04 mg of moxaverine/g of moist tissue
Amount of active substance in the moist tissue, Mean value ([1]; ocular application, after 30 minutes, Vitreous humor): 1.1544E−07 mg of moxaverine/g of moist tissue
Amount of active substance in the moist tissue, Mean value ([1]; ocular application, after 120 minutes, Aqueous humor): 9.3417E−08 mg of moxaverine/g of moist tissue
Amount of active substance in the moist tissue, Mean value ([1]; ocular application, after 120 minutes, Conjunctiva): 3.7275E−04 mg of moxaverine/g of moist tissue
Amount of active substance in the moist tissue, Mean value ([1]; ocular application, after 120 minutes, Cornea): 1.1057E−03 mg of moxaverine/g of moist tissue
Amount of active substance in the moist tissue, Mean value ([1]; ocular application, after 120 minutes, Iris/ciliary process): 2.9849E−03 mg of moxaverine/g of moist tissue
Amount of active substance in the moist tissue, Mean value ([1]; ocular application, after 120 minutes, Lens): 5.6780E−05 mg of moxaverine/g of moist tissue
Amount of active substance in the moist tissue, Mean value ([1]; ocular application, after 120 minutes, Plasma): 1.2891E−05 mg of moxaverine/g of moist tissue
Amount of active substance in the moist tissue, Mean value [1, 5]: 1.4397E−04 mg of moxaverine/g of moist tissue
Amount of active substance in the moist tissue [1, 5]: 1.8933E−04 mg of moxaverine/g of moist tissue and 1.4755E−04 mg of moxaverine/g of moist tissue and 9.5039E−05 mg of moxaverine/g of moist tissue
Amount of active substance in the moist tissue, Mean value ([1]; ocular application, after 120 minutes, Sclera): 1.0330E−04 mg of moxaverine/g of moist tissue
Amount of active substance in the moist tissue, Mean value ([1]; ocular application, after 120 minutes, Vitreous humor): 9.6118E−09 mg of moxaverine/g of moist tissue
Absorption and biological availability in the eye, topical compared to systemic application ([1]; same application amount): better absorbed by the eye with topical application and exhibits a markedly longer biological availability in the eye
Concentration in the iris and the ciliary process at 120 minutes as share of the concentration after 30 minutes ([1]; systemic application): about 63%
Factor of decrease of concentration in the retina from 30 to 120 minutes ([1]; systemic application): 1.6
Amount of active substance in the moist tissue, Mean value [1, 6]: 2.2632E−09 mg of moxaverine/g of moist tissue
Amount of active substance in the moist tissue [1, 6]: 2.0291E−09 mg of moxaverine/g of moist tissue and 2.4973E−09 mg of moxaverine/g of moist tissue
Amount of active substance in the moist tissue, Mean value ([1]; systemic application (intravenous), after 30 minutes, Conjunctiva): 2.4278E−05 mg of moxaverine/g of moist tissue
Amount of active substance in the moist tissue, Mean value ([1]; systemic application (intravenous), after 30 minutes, Cornea): 8.1549E−06 mg of moxaverine/g of moist tissue
Amount of active substance in the moist tissue, Mean value [1, 7]: 2.5186E−04 mg of moxaverine/g of moist tissue
Amount of active substance in the moist tissue [1, 7]: 2.2898E−04 mg of moxaverine/g of moist tissue and 2.7473E−04 mg of moxaverine/g of moist tissue
Amount of active substance in the moist tissue, Mean value [1, 8]: 1.2813E−06 mg of moxaverine/g of moist tissue
Amount of active substance in the moist tissue [1, 8]: 9.5659E−07 mg of moxaverine/g of moist tissue and 1.6061E−06 mg of moxaverine/g of moist tissue
Amount of active substance in the moist tissue, Mean value [1, 9]: 3.4421E−05 mg of moxaverine/g of moist tissue
Amount of active substance in the moist tissue [1, 9]: 2.8375E−05 mg of moxaverine/g of moist tissue and 4.9032E−05 mg of moxaverine/g of moist tissue and 2.5855E−05 mg of moxaverine/g of moist tissue
Amount of active substance in the moist tissue, Mean value [1, 10]: 1.3046E−04 mg of moxaverine/g of moist tissue
Amount of active substance in the moist tissue [1, 10]: 1.0666E−04 mg of moxaverine/g of moist tissue and 1.5425E−04 mg of moxaverine/g of moist tissue
Amount of active substance in the moist tissue, Mean value ([1]; systemic application (intravenous), after 30 minutes, Sclera): 3.3698E−05 mg of moxaverine/g of moist tissue
Amount of active substance in the moist tissue, Mean value [1, 11]: 2.0811E−09 mg of moxaverine/g of moist tissue
Amount of active substance in the moist tissue [1, 11]: 2.6534E−09 mg of moxaverine/g of moist tissue and 1.5088E−09 mg of moxaverine/g of moist tissue
Amount of active substance in the moist tissue, Mean value [1, 12]: 1.9944E−09 mg of moxaverine/g of moist tissue
Amount of active substance in the moist tissue [1, 12]: 2.3412E−09 mg of moxaverine/g of moist tissue and 1.8210E−09 mg of moxaverine/g of moist tissue
Amount of active substance in the moist tissue, Mean value [1, 13]: 2.2936E−05 mg of moxaverine/g of moist tissue
Amount of active substance in the moist tissue [1, 13]: 2.7539E−05 mg of moxaverine/g of moist tissue and 1.5261E−05 mg of moxaverine/g of moist tissue and 2.6009E−05 mg of moxaverine/g of moist tissue
Amount of active substance in the moist tissue, Mean value ([1]; systemic application (intravenous), after 120 minutes, Cornea): 7.6083E−06 mg of moxaverine/g of moist tissue
Amount of active substance in the moist tissue, Mean value [1, 14]: 1.5907E−04 mg of moxaverine/g of moist tissue
Amount of active substance in the moist tissue [1, 14]: 1.2211E−04 mg of moxaverine/g of moist tissue and 1.6708E−04 mg of moxaverine/g of moist tissue and 1.8802E−04 mg of moxaverine/g of moist tissue
Amount of active substance in the moist tissue, Mean value [1, 15]: 1.5477E−06 mg of moxaverine/g of moist tissue
Amount of active substance in the moist tissue [1, 15]: 1.3706E−06 mg of moxaverine/g of moist tissue and 2.0870E−06 mg of moxaverine/g of moist tissue and 1.1854E−06 mg of moxaverine/g of moist tissue
Amount of active substance in the moist tissue, Mean value [1, 16]: 2.2620E−05 mg of moxaverine/g of moist tissue
Amount of active substance in the moist tissue [1, 16]: 2.4420E−05 mg of moxaverine/g of moist tissue and 2.1190E−05 mg of moxaverine/g of moist tissue and 2.2250E−05 mg of moxaverine/g of moist tissue
Amount of active substance in the moist tissue, Mean value [1, 17]: 7.7330E−05 mg of moxaverine/g of moist tissue
Amount of active substance in the moist tissue [1, 17]: 9.5067E−05 mg of moxaverine/g of moist tissue and 8.3068E−05 mg of moxaverine/g of moist tissue and 5.3855E−05 mg of moxaverine/g of moist tissue
Amount of active substance in the moist tissue, Mean value [1, 18]: 1.3993E−05 mg of moxaverine/g of moist tissue
Amount of active substance in the moist tissue [1, 18]: 1.4230E−05 mg of moxaverine/g of moist tissue and 1.1476E−05 mg of moxaverine/g of moist tissue and 1.6272E−05 mg of moxaverine/g of moist tissue
Amount of active substance in the moist tissue, Mean value [1, 19]: 1.2851E−09 mg of moxaverine/g of moist tissue
Amount of active substance in the moist tissue [1, 19]: 1.5608E−09 mg of moxaverine/g of moist tissue and 9.6772E−10 mg of moxaverine/g of moist tissue and 1.3267E−09 mg of moxaverine/g of moist tissue
Absorption by the eye after topical application to the surface ([1]; topical application): very well absorbed by the eye
Factor of increase of concentration in the iris and the ciliary process from 30 minutes to 120 minutes ([1]; topical application): ~2
Factor of increase of concentration in the retina from 30 to 120 minutes ([1]; topical application): 1.4

CCc1cc2cc(OC)c(OC)cc2c(Cc2ccccc2)n1 [moxaverine hydrochloride]
Eye reaction: changes to the iris, clouding of the cornea (albino rabbits): No changes to the iris or clouding of the cornea were observed
Eye reaction: swelling of the lids, reddening of the conjunctiva (albino rabbits): No rabbit exhibited swelling of the lids or any reddening of the conjunctiva
